Experimental data published in patent US4833162A, “Substituted benzeneacetonitriles and their use as calcium channel blockers” (American Cyanamid Company, priority 1988, dated 1989).
Counter-ions that a name gives are not always drawn.

Columns and labels:
[1] = system: thoracic aortae rings (potassium chloride-induced contraction); test: Calcium antagonist Test 1: inhibition of potassium chloride-induced contraction of rat thoracic aortic rings; type: cell-based, Sprague-Dawley rat; conditions: 50 mM potassium chloride, 37° C., active if >50% inhibition at 3×10^-5 M, read-out: bath concentration at which more than 50% of the potassium chloride-induced contraction was inhibited
Experimental: Male Sprague-Dawley rats, weighing 300-470 g, were killed and their thoracic aortae were removed immediately, cleared of blood, fat and connective tissue and cut into rings 1-2 mm wide. […] The bath media was maintained at 37° C. and aerated with 5% carbon dioxide in oxygen.
At the start of the test, the aortic rings were stretched to an initial tension of one gram. The tissues were then allowed to equilibrate for 90 minutes until they reached a steady tension. Changes in tension were recorded using a force displacement transducer coupled to a Grass polygraph.
The potassium chloride-induced contractions were repeated until a constant tension was obtained. These initial contractions served as a control for subsequent contractions induced in the presence of a test compound.
Each compound was dissolved in ethanol to a stock concentration of 10^-2 M. The ability of these compounds to inhibit a potassium chloride-induced contraction was determined by comparing the tension developed in the presence of each compound versus the control.

renal hypertensive dogs = test: Test 3: antihypertensive activity in renal hypertensive dogs; type: in vivo, dog
Experimental: Antihypertensive activity was also measured in renal hypertensive dogs.

rat = test: Test 2: antihypertensive activity in the rat (MABP and heart rate); type: in vivo; conditions: for antihypertensive activity (comparison in words): Verapamil 50 mg/kg versus 1-methylethyl substituted thio compound 100 mg/kg; for heart rate (HR) / mean arterial blood pressure (MABP): average two rats
Experimental: Antihypertensive activity was measured in the rat by the mean arterial blood pressure (MABP) in millimeters of mercury and heart rate (HR) in beats per minute (average two rats).

IC50 [1] [nM] | Compound | increase in HR to (renal hypertensive dogs; dose of 20 mg/kg) | drop in blood pressure (renal hypertensive dogs; dose of 20 mg/kg, over a two hour period) [millimeter] | antihypertensive activity (comparison in words) (rat) | heart rate (HR) (rat; dose of 100 mg/kg) [beats per minute] | mean arterial blood pressure (MABP) (rat; dose of 100 mg/kg) | increase in HR of (renal hypertensive dogs; dose of 10 mg/kg) | drop in blood pressure (renal hypertensive dogs; dose of 10 mg/kg, over a four hour period) | heart rate (HR) (rat; dose of 50 mg/kg) [beats per minute] | mean arterial blood pressure (MABP) (rat; dose of 50 mg/kg)
800 | COc1ccc(CCN(C)CCSC(C#N)(c2ccc(OC)c(OC)c2)C(C)C)cc1OC (stereo not drawn) [1-methylethyl substituted thio compound, A-[[2-[[2-(3,4dimethoxyphenyl)ethyl]methylamino]ethyl]thio]-3,4-dimethoxy-A-(1-methylethyl) benzeneacetonitrile monohydrochloride] | above 153 | 45 | comparable antihypertensive activity | 320 | 97 millimeters of mercury | – | – | – | –
– | COc1ccc(CCN(C)CCCC(C#N)(c2ccc(OC)c(OC)c2)C(C)C)cc1OC (stereo not drawn) [Verapamil, A-[3-[[2-(3,4-dimethoxyphenyl)ethyl]methylamino]propyl]-3,4-dimethoxy-A-(1-methylethyl) benzeneacetonitrile, reference compound] | – | – | comparable antihypertensive activity | – | – | 75 | 30 millimeters of mercury | 350 | 93 millimeters of mercury
3000 | COc1ccc(CCN(C)CCSC(C#N)c2ccc(OC)c(OC)c2)cc1OC (stereo not drawn) [unsubstituted thio compound, A-[[2-[[2(3,4-dimethoxyphenyl)ethyl]methylamino]ethyl]thio]-3,4-dimethoxy-A-benzeneacetonitrile monohydrochloride] | – | – | – | – | – | – | – | – | –
